According to patent US7439372B2, “Therapeutic compounds” (Allergan, Inc., priority 2006, dated 2008):

Tests used:
[1] = Intraocular pressure in dog; assay type: in vivo; details: Conc. 0.1% (g/100 mL)
Description: U.S. patent application Ser. No. 11/553,143, filed on Oct. 26, 2006, incorporated by reference herein, describes the methods used to obtain the in vitro data in the table below.

Ocular hyperemia in dog = assay type: in vivo; details: Conc. 0.1% (g/100 mL)
[2] = Intraocular pressure in monkey; assay type: in vivo; details: Conc. 0.1% (g/100 mL)
EP4 receptors = target: T1, EP4 receptors (Homo sapiens, UniProt P35408); experiment: Radioligand binding, [3H]PGE2, HEK-293 cells stably expressing EP4 receptors; details: [3H]PGE2 competition
T1 construct: expressed in transfected cells; host or cells: HEK-293
Experimental: (§1) HEK-293 cells stably expressing the human or feline FP receptor, or EP1, EP2, or EP4 receptors were washed with TME buffer, scraped from the bottom of the flasks, and homogenized for 30 sec using a Brinkman PT 10/35 polytron. TME buffer was added to achieve a final 40 ml volume in the centrifuge tubes (the composition of TME is 100 mM TRIS base, 20 mM MgCl2, […]; 10N HCl is added to achieve a pH of 7.4).
(§2) The cell homogenate was centrifuged at 19000 r.p.m. for 20 min at 4° C. using a Beckman Ti-60 rotor. The resultant pellet was resuspended in TME buffer to give a final 1 mg/ml protein concentration, as determined by Biorad assay. Radioligand binding competition assays vs. [^3H-]17-phenyl PGF2α (5 nM) were performed in a 100 μl volume for 60 min. Binding reactions were started by adding plasma membrane fraction. The reaction was terminated by the addition of 4 ml ice-cold TRIS-HCl buffer and rapid filtration through glass fiber GF/B filters using a Brandel cell harvester. The filters were washed 3 times with ice-cold buffer and oven dried for one hour.
(§3) [^3H-]PGE2 (specific activity 180 Ci mmol) was used as the radioligand for EP receptors. [^3H]17-phenyl PGF2α was employed for FP receptor binding studies. Binding studies employing EP1, EP2, EP4 and FP receptors were performed in duplicate in at least three separate experiments. A 200 μl assay volume was used. Incubations were for 60 min at 25° C. and were terminated by the addition of 4 ml of ice-cold 50 mM TRIS-HCl, followed by rapid filtration through Whatman GF/B filters and three additional 4 ml washes in a cell harvester (Brandel). Competition studies were performed using a final concentration of 5 nM [^3H]-PGE2, or 5 nM [^3H] 17-phenyl PGF2α and non-specific binding determined with 10^−5M of unlabeled PGE2, or 17-phenyl PGF2α, according to receptor subtype studied.

hEP4/Gqs5 = target: T2, hEP4/Gqs5 (Homo sapiens, UniProt P35408); experiment: FLIPR calcium signal, HEK-293(EBNA) cells expressing hEP4/Gqs5; assay type: cell-based
T2 construct: expressed in transfected cells; host or cells: HEK-293(EBNA)
Experimental: HEK-293(EBNA) cells, stably expressing one type or subtype of recombinant human prostaglandin receptors (prostaglandin receptors expressed: hDP/Gqs5; hEP1; hEP2/Gqs5; hEP3A/Gqi5; hEP4/Gqs5; hFP; hIP; hTP), were cultured in 100 mm culture dishes in high-glucose DMEM medium containing 10% fetal bovine serum, 2 mM l-glutamine, 250 µg/ml geneticin (G418) and 200 μg/ml hygromycin B as selection markers, and 100 units/ml penicillin G, 100 µg/ml streptomycin and 0.25 μg/ml amphotericin B.
Cells were seeded at a density of 5×10^4 cells per well in Biocoat® Poly-D-lysine-coated black-wall, clear-bottom 96-well plates (Becton-Dickinson) and allowed to attach overnight in an incubator at 37° C. Cells were then washed two times with HBSS-HEPES buffer (Hanks Balanced Salt Solution without bicarbonate and phenol red, 20 mM HEPES, pH 7.4) using a Denley Cellwash plate washer (Labsystems). After 45 minutes of dye-loading in the dark, using the calcium-sensitive dye Fluo-4 […] at a final concentration of 2 μM, plates were washed four times with HBSS-HEPES buffer to remove excess dye leaving 100 μl in each well. Plates were re-equilibrated to 37° C. for a few minutes.
Cells were excited with an Argon laser at 488 nm, and emission was measured through a 510-570 nm bandwidth emission filter (FLIPR™, Molecular Devices, Sunnyvale, Calif.). Drug solution was added in a 50 µl volume to each well to give the desired final concentration. The peak increase in fluorescence intensity was recorded for each well. On each plate, four wells each served as negative (HBSS-HEPES buffer) and positive controls (standard agonists: BW245C (hDP); PGE2 (hEP1; hEP2/Gqs5; hEP3A/Gqi5; hEP4/Gqs5); PGF2α (hFP); carbacyclin (hIP); U-46619 (hTP), depending on receptor). The peak fluorescence change in each drug-containing well was then expressed relative to the controls.
Compounds were tested in a high-throughput (HTS) or concentration-response (CoRe) format. In the HTS format, forty-four compounds per plate were examined in duplicates at a concentration of 10^−5 M. To generate concentration-response curves, four compounds per plate were tested in duplicates in a concentration range between 10^−5 and 10^−11 M. The duplicate values were averaged. In either, HTS or CoRe format each compound was tested on at least 3 separate plates using cells from different passages to give an n≧3.

EP2 = EP2 (Homo sapiens, UniProt P43116); experiment: Competition binding, [3H]PGE2, HEK 293 cells stably expressing human EP2 receptors; set-up: expressed in transfected cells; host or cells: HEK 293; details: [3H]PGE2 competition
Experimental: Competition binding experiments were performed in a medium containing Hank's balanced salt solution, Hepes 20 mM, pH 7.3, membranes (˜60 μg protein) or 2×10^5 cells from HEK 293 cells stably expressing human EP2 receptors, [^3H]PGE2 (10 nM) and various concentrations of test compounds in a total volume of 300 μl. Reaction mixtures were incubated at 23° C. for 60 min, and were filtered over Whatman GF/B filters under vacuum. Filters were washed three times with 5 ml ice-cold buffer containing 50 mM Tris/HCl (pH 7.3). Non-specific binding was estimated in the presence of excess unlabeled PGE2 (10 μM). Binding data fitted to the binding model for a single class of binding sites, using nonlinear regression analysis. IC50 values thus obtained were converted to Ki using the equation of Ki=(IC50/(1+[L]/KD) where [L] represents PGE2 concentration (10 nM) and KD the dissociation constant for [3H]PGE2 at human EP2 receptors (40 nM).
as §1, §2, §3

Chain of EP2 (P43116 whole entry): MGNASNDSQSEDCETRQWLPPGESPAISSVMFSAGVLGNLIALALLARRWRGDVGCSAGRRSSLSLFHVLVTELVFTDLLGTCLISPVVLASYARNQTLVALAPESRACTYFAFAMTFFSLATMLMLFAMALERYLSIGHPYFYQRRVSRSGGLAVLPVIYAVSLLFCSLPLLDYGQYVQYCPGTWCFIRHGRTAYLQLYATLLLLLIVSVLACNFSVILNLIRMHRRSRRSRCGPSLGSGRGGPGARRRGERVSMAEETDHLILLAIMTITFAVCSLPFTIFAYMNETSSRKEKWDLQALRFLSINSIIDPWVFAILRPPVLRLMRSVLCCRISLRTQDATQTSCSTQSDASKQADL
T1 sequence (P35408 whole entry): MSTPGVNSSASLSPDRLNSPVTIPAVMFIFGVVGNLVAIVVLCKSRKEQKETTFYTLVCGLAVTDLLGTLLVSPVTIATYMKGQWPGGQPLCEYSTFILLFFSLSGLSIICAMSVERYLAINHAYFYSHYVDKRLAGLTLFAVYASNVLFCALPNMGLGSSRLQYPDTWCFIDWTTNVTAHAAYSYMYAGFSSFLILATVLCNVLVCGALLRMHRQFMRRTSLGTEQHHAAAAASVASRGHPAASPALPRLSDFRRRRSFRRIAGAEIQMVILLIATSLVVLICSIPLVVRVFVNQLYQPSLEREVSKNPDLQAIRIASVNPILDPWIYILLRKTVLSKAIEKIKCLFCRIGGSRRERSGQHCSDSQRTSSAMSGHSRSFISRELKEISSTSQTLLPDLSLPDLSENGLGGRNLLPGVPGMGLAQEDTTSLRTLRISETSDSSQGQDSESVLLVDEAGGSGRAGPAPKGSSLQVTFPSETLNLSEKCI
T2 sequence (P35408 whole entry): as above

Row | DOG Max. hyperemia (Ocular hyperemia in dog) | Ki (EP4 receptors) | Ca2+ Signal-EC50(nM) EP4 (hEP4/Gqs5) | Ki (EP2) | Structure (SMILES) | DOG Max. ΔIOP (%) [1] | MONKEY Max. ΔIOP (%) [2]
1 | 1.6 |  |  |  | CCCCCC(O)c1ccc([C@H]2C(=O)CC[C@@H]2CCCc2ccc(C(=O)OC(C)C)s2)cc1 (some centres unmarked) [compound 1] | −37% | 
2 | 0.4 |  |  |  | CCCCCC(O)c1ccc([C@@H]2[C@@H](CCCc3ccc(C(=O)OC(C)C)s3)CCC2(Cl)Cl)cc1 (some centres unmarked) [compound 2] | −6% | −21%
3 |  | 4330 nM | notactive | > 10000 nM | CCCCCC(O)c1ccc([C@H]2C(=O)C=C[C@@H]2C/C=C\CCCC(=O)O)cc1 (some centres unmarked) [compound 4] |  | 
